Experimental data as given in US5942663A, “Biocidal proteins” (Zeneca Limited, priority 1991, dated 1999).
Like-named read-outs stand apart in the source and are kept apart here. No end group written: not given here.

Tests used:
Fusarium culmorum [1] = assay: Stability of the antifungal activity of the Mj-AMPs; format: cell-based
Experimental: Antifungal activity was measured by microspectrophotometry as previously described (Broekaert, WF et al; 1990; FEMS Microbiol Lett, 69, 55-60). Routinely, tests were performed with 20 μl of a (filter-sterilized) test solution and 80 μl of a fungal spore suspension (2×10^4 spores/ml) in half strength Potato Dextrose Broth (Difco). Control microcultures contained 20 μl of (sterile) distilled water and 80 μl of the fungal spore suspension. Unless otherwise stated the test organism was Fusarium culmorum and incubation was done at 25° C. for 48 hours. Percent growth inhibition is defined as 100 times the ratio of the corrected absorbance of the control microculture minus the corrected absorbance of the test microculture over the corrected absorbance at 595 nm of the control microculture. The corrected absorbance values equal the absorbance at 595 nm of the culture measured after 48 hours minus the absorbance at 595 nm measured after 30 min. Values of growth inhibition lower than 10% are not indicated on the chromatograms.
Table 1 summarises the results of further testing of the stability of the antifungal activity of the Mj-AMPs. Tests for antifungal activity were performed with 20 μl samples diluted five-fold with growth medium containing Fusarium culmorum spores (2×10^4 spores/ml), according to the assay method given in Example 2. Control samples contained either Mj-AMP1 at 500 μg/ml or Mj-AMP2 at 100 μg/ml in 10 mM sodium phosphate buffer (pH 7). Reduction was done by addition of DTT at 2.5 mM followed by incubation at 37° C. for 2 hours. pH stability was tested in the following buffers: 20 mM glycine-HCl (pH 2 and 3); 20 mM diethanolamine-HCl (pH 10); and 20 mM glycine-NaOH (pH 11). After 1 hour of incubation in the appropriate buffers the samples were dialyzed for 16 hours against 10 mm sodium phosphate buffer (pH 7). For digestions, proteases were added at 100 μg/ml and incubated at 37° C. for 16 hours.

[2] = tested on: Colletotrichum lindemuthianum; format: cell-based; conditions: C lindemuthianum
Fusarium culmorum [3] = format: cell-based; conditions: F culmorum, 48 hours of incubation
[4] = tested on: Fusarium oxysporum f.sp. pisi; format: cell-based; conditions: 48 hours of incubation
Phoma betae = format: cell-based; conditions: P betae, 48 hours of incubation
[5] = tested on: Pyrenophora tritici-repentis; format: cell-based; conditions: P tritici-repentis, 48 hours of incubation
Pyricularia oryzae = format: cell-based
Venturia inaequalis = format: cell-based; conditions: V inaequalis, 10 days of incubation
Cercospora beticola = assay: Foliar diseases in vivo test, protectant foliar spray; conditions: C beticola on sugarbeet, foliar spray 100 μg/ml
Experimental: The plants were grown in John Innes Potting Compost (No 1 or 2) in 4 cm diameter mini-pots. The protein preparation was formulated immediately prior to use by dissolving in sterile deionised water and diluting to the appropriate concentration. It is assumed that the protein extract contains approximately 1% active ingredient. A pure sample of Mj-AMP1 was similarly prepared. The formulations were applied to the plants as a foliar spray. The spray was applied to maximum discrete droplet retention. Tween 20, to give a final concentration of 0.05%, was added when the spray was applied to cereals. The protein preparation was applied to the foliage (by spraying) one or two days before the plant was inoculated with the disease (protectant application). […] After inoculation, the plants were put into an appropriate environment to allow infection to proceed and then incubated until the disease was ready for assessment. […]
Results are shown in Table 3 for the three fungal pathogens: Septoria nodorum (Fungi Imperfecti) tested on wheat, Plasmopara viticola (Phycomycete) tested on grapevine, and Cercospora beticola tested on sugarbeet. The disease control was recorded by the following grading: 4=no disease; 3=trace-5% of disease on untreated plants; 2=6-25% of disease on untreated plants; 1=26-60% of disease on untreated plants; 0=61-100% of disease on untreated plants.

Saccharomyces cerevisiae = assay: Inhibitory activity against yeast; format: cell-based; set-up: key: +++:complete inhibition; +:some inhibition; -:no inhibition
Experimental: The inhibitory activity of Mj-AMPs against yeast, Saccharomyces cerevisiae was tested. The results shown in Table 5 indicate that Mj-AMPs do inhibit the growth of yeast at concentrations of 500 μg/ml or above.

Bacillus megaterium = assay: Antibacterial activity in vitro test; format: cell-based; conditions: B megaterium, 48 hours
Experimental: (§1) The antibacterial activity of the Mj-AMPs was tested against a range of gram-positive and gram-negative bacteria: Bacillus megaterium, Sarcina lutea, Escherichia coli and Erwinia carotovora. β-purothionin and UDA were also tested for comparison (see Example 7). Tests were performed in soft agarose medium containing 1% tryptone and, with or without 1 mM CaCl2 and 50 mM KCl. Absorbance, 595 nm, of the culture was measured after 48 hours.

Erwinia carotovora = assay: Antibacterial activity in vitro test; format: cell-based; conditions: E carotovora, 48 hours
Experimental: as §1

Escherichia coli = assay: Antibacterial activity in vitro test; format: cell-based; conditions: E coli, 48 hours
Experimental: as §1

Sarcina lutea = assay: Antibacterial activity in vitro test; format: cell-based; conditions: S lutea, 48 hours
Experimental: as §1

[6] = MEDIUM +Ca/K (1 mM CaCl2 and 50 mM KCl)

Mj-AMP1: antimicrobial protein from Mirabilis jalapa seeds, dimer of two 4 kDa subunits, 37 residues, SEQ ID NO:1 (QCIGNGGRCNENVGPPYCCSGFCLRQPGQGYGYCKNR; cysteine pairing not given here; also: homodimer)
Relative antifungal activity (shown as % of control activity) (Fusarium culmorum [1]; 80° C., 10 min): 100 % of control activity
Relative antifungal activity (shown as % of control activity) (Fusarium culmorum [1]; 90° C., 10 min): 100 % of control activity
Relative antifungal activity (shown as % of control activity) (Fusarium culmorum [1]; 100° C., 10 min): 100 % of control activity
Relative antifungal activity (shown as % of control activity) (Fusarium culmorum [1]; Chymotrypsin digestion, 100 μg/ml, 37° C., 16 hours): 12 % of control activity
Relative antifungal activity (shown as % of control activity) (Fusarium culmorum [1]; Control: Mj-AMP1 500 μg/ml or Mj-AMP2 100 μg/ml in 10 mM sodium phosphate buffer pH 7): 100 % of control activity
Relative antifungal activity (shown as % of control activity) (Fusarium culmorum [1]; Pronase E digestion, 100 μg/ml, 37° C., 16 hours): 50 % of control activity
Relative antifungal activity (shown as % of control activity) (Fusarium culmorum [1]; Proteinase K digestion, 100 μg/ml, 37° C., 16 hours): 100 % of control activity
Relative antifungal activity (shown as % of control activity) (Fusarium culmorum [1]; Reduction: DTT 2.5 mM, 37° C., 2 hours): < 6 % of control activity
Relative antifungal activity (shown as % of control activity) (Fusarium culmorum [1]; Trypsin digestion, 100 μg/ml, 37° C., 16 hours): 75 % of control activity
Sensitivity to protease (in words) (Fusarium culmorum [1]; chymotrypsin): sensitive
Relative antifungal activity (shown as % of control activity) (Fusarium culmorum [1]; pH 2, 60 min): 100 % of control activity
Relative antifungal activity (shown as % of control activity) (Fusarium culmorum [1]; pH 3, 60 min): 100 % of control activity
Relative antifungal activity (shown as % of control activity) (Fusarium culmorum [1]; pH 10, 60 min): 100 % of control activity
Relative antifungal activity (shown as % of control activity) (Fusarium culmorum [1]; pH 11, 60 min): 100 % of control activity
Sensitivity to protease (in words) (Fusarium culmorum [1]; pronase E): resisted almost completely
Sensitivity to protease (in words) (Fusarium culmorum [1]; proteinase K): resisted almost completely
Sensitivity to protease (in words) (Fusarium culmorum [1]; trypsin): resisted almost completely
IC50 ([2]; 48 hours of incubation): 6 µg/mL
IC50 ([2]; after 72 hours): 12 µg/mL
IC50 (Fusarium culmorum [3]): 30 µg/mL
IC50 [4]: 15 µg/mL
IC50 (Phoma betae): 25 µg/mL
IC50 [5]: 300 µg/mL
IC50 (Pyricularia oryzae): 6 µg/mL
IC50 (Venturia inaequalis): 12 µg/mL
Disease control grading (Cercospora beticola): 3 (3=trace-5% of disease on untreated plants)
Inhibitory activity against yeast (Saccharomyces cerevisiae; with Ca/K, 5 μg/ml): -
Inhibitory activity against yeast (Saccharomyces cerevisiae; with Ca/K, 50 μg/ml): -
Inhibitory activity against yeast (Saccharomyces cerevisiae; with Ca/K, 500 μg/ml): +++
Inhibitory activity against yeast (Saccharomyces cerevisiae; without Ca/K, 5 μg/ml): +
Inhibitory activity against yeast (Saccharomyces cerevisiae; without Ca/K, 50 μg/ml): +++
Inhibitory activity against yeast (Saccharomyces cerevisiae; without Ca/K, 500 μg/ml): +++
IC50 (Bacillus megaterium; [6]): 20 µg/mL
IC50 (Bacillus megaterium; MEDIUM -Ca/K): 6 µg/mL
IC50 (Erwinia carotovora; [6]): > 500 µg/mL
IC50 (Erwinia carotovora; MEDIUM -Ca/K): > 500 µg/mL
IC50 (Escherichia coli; [6]): > 500 µg/mL
IC50 (Escherichia coli; MEDIUM -Ca/K): > 500 µg/mL
IC50 (Sarcina lutea; [6]): > 500 µg/mL
IC50 (Sarcina lutea; MEDIUM -Ca/K): 100 µg/mL
